Bases are written 5' to 3'; sugars and linkages follow in the same order, as letters with counts (s phosphorothioate, o phosphodiester; PS: all linkages phosphorothioate). The collection does not say whether C is 5-methylated. l = locked nucleic acid (LNA); d = 2'-deoxy (DNA) A value given as a limit tells only on which side of the number the result lay.

The target in this data set is Tau. The data set can be described thus: rat primary cortical neurons, FLIPR, 25 uM ASO.
Regarding AAGAGGCACAAGTCCT (sugars l3 d10 l3, PS), the calcium oscillation score was 81.6 % of control.

Regarding “TTCCATCCTAAGTCAACC (sugars l3 d13 l2, PS)”, the calcium oscillation score is 70.6 % of control.

With CTACCATGTCGATGCT (sugars l3 d10 l3, PS), the calcium oscillation score was 99.7 % of control.

Regarding “ATGATTAATTACACCCC (sugars l3 d11 l3, PS)”, the calcium oscillation score is 8.2 % of control.

In the case of “TATTTCCAAATTCACTTTTA (sugars lldldldddddddddlldll, PS)”, the calcium oscillation score is 141 % of control.

As for “TATCTTATTGCTTTCCA (sugars l2 d12 l3, PS)”, the calcium oscillation score was 63 % of control.

As for “ATCAATTTGGAAAGATGAAA (sugars l3 d14 l3, PS)”, the calcium oscillation score was 10.4 % of control.

Turning to “GTCTACCATGTCGATGCTGC (sugars l3 d14 l3, PS)”, the calcium oscillation score was 23.2 % of control.

With “TTATTTCCAAATTCACTTTT (sugars lldlddldddddddddllll, PS)”, the calcium oscillation score was 131 % of control.

As to “CAACTCTTTGAACACCCC (sugars l2 d14 l2, PS)”, the calcium oscillation score was 91.6 % of control.

For the sequence TAATCCTGTGCTTCAG (sugars l3 d10 l3, PS), the calcium oscillation score was 75.8 % of control.

Take “TTTATTTCCAAATTCACTTT (sugars l3 d14 l3, PS)”: the calcium oscillation score was ≥ 200 % of control.

Consider “TCATGAGCACTAACTCTAAG (sugars l3 d14 l3, PS)”, for which the calcium oscillation score is 35.7 % of control.

Consider “TCCAGGGACCCAATCTTCGA (sugars l3 d14 l3, PS)”, for which the calcium oscillation score was 0 % of control.

In the case of TCGCTTCCAGTCCCGT (sugars l3 d10 l3, PS), the calcium oscillation score was 110 % of control.

GTCAGCTAGCGTGGCG (sugars l3 d10 l3, PS): the calcium oscillation score was 27.6 % of control.

In the case of “TGCTTACACACCACACA (sugars l2 d12 l3, PS)”, the calcium oscillation score was 80.5 % of control.

With AGGTCTGGCATGGGC (sugars l3 d9 l3, PS), the calcium oscillation score was 47.6 % of control.

In the case of “ATTTCCAAATTCACTTTTAC (sugars lldldldddddddddldlll, PS)”, the calcium oscillation score was 122 % of control.

For “TAACCAACTTTCATCTACTT (sugars l3 d14 l3, PS)”, the calcium oscillation score was 47.2 % of control.

For the sequence TGTAGACTATTTGC (sugars l3 d8 l3, PS), the calcium oscillation score was 30.9 % of control.

Turning to “CCAACTCAACATTACCCTT (sugars l2 d15 l2, PS)”, the calcium oscillation score is 66.3 % of control.

For AACATCACCAGCCTTC (sugars l3 d9 l4, PS), the calcium oscillation score is 50.7 % of control.

As to “GATATTGTCCAGGGACCCAA (sugars l3 d14 l3, PS)”, the calcium oscillation score was 9.97 % of control.

Take GTCTCAAATCAAACTA (sugars l4 d8 l4, PS): the calcium oscillation score is 60.6 % of control.

Consider ATATCATATCCTAAGC (sugars l4 d9 l3, PS), for which the calcium oscillation score was 50.9 % of control.

Take “TTTCATCTACTTTTCAGC (sugars l4 d12 l2, PS)”: the calcium oscillation score is 39.4 % of control.

Consider “CTAATTCCCAAATTCCTCAT (sugars l3 d14 l3, PS)”, for which the calcium oscillation score was 60.9 % of control.

In the case of CCTTAATTTCACCC (sugars l3 d8 l3, PS), the calcium oscillation score is 66.7 % of control.

“TAACCAGCTAGTGGTGCCAC (sugars l3 d14 l3, PS)”: the calcium oscillation score is 18.4 % of control.

On to CTCATTGCAACTTTAAC (sugars l4 d9 l4, PS), for which the calcium oscillation score was 84.9 % of control.

For the sequence GATGTTGCCTAATGAG (sugars l3 d10 l3, PS), the calcium oscillation score was 0 % of control.

Consider “CCAGGGAGGCAGACACCTCG (sugars l3 d14 l3, PS)”, for which the calcium oscillation score was 10.2 % of control.

For the sequence CCCATTTACAATTCAG (sugars l3 d10 l3, PS), the calcium oscillation score was 52.6 % of control.

As for TCATCTTTTCTAGAAC (sugars l4 d8 l4, PS), the calcium oscillation score is 77.3 % of control.

For the sequence “CTTTATTTCCAAATTCACT (sugars l5 d9 l1 d1 l3, PS)”, the calcium oscillation score is 110 % of control.

For “AGTGATTAACCAATTAACCG (sugars l3 d14 l3, PS)”, the calcium oscillation score is 5.18 % of control.

Take “TCTTAATTCATTTAATTCTC (sugars l4 d12 l4, PS)”: the calcium oscillation score was 87.1 % of control.

Regarding “CTCAAACTTAAATTTATT (sugars l4 d10 l4, PS)”, the calcium oscillation score is 82.4 % of control.

On to “CCAGCGTGATCTTCCATCAC (sugars l3 d14 l3, PS)”, for which the calcium oscillation score is 112 % of control.

For “GCTCAGCTAAGACCCTCAGG (sugars l3 d14 l3, PS)”, the calcium oscillation score was 29.4 % of control.

For the sequence “TCCTAATTCCCAAATTCCTC (sugars l2 d15 l3, PS)”, the calcium oscillation score is 76.6 % of control.

Consider GTGATATTGTCCAGGG (sugars l3 d10 l3, PS), for which the calcium oscillation score was 14.8 % of control.

Turning to “CCAAATTCCTCATAATCCAA (sugars l2 d15 l3, PS)”, the calcium oscillation score was 73.4 % of control.

As for GTTGCCTAATGAGCCA (sugars l3 d10 l3, PS), the calcium oscillation score is 46.1 % of control.

Take “TCCCAAATTCCTCATAATCC (sugars l2 d16 l2, PS)”: the calcium oscillation score is 64.5 % of control.

For “AACAAACAAAAATCCCCTA (sugars l4 d11 l4, PS)”, the calcium oscillation score was 85.7 % of control.

Regarding CGAGCCAAAGCCGA (sugars l3 d8 l3, PS), the calcium oscillation score is 116 % of control.

CTTGTGATGCAGGA (sugars l3 d8 l3, PS): the calcium oscillation score was 70.5 % of control.

For the sequence CTAATCCTGTGCTT (sugars l3 d8 l3, PS), the calcium oscillation score was 26.1 % of control.

With “CCAAACTTTTACTCTGA (sugars l4 d10 l3, PS)”, the calcium oscillation score was 44.5 % of control.

Take “CAAACCAACTCAACATTACC (sugars l4 d14 l2, PS)”: the calcium oscillation score is 94.7 % of control.

Regarding “CTCATCAACACCTTTTAATT (sugars l4 d14 l2, PS)”, the calcium oscillation score is 78.7 % of control.

Turning to “TCTCAAGTCTTATTCTC (sugars l3 d11 l3, PS)”, the calcium oscillation score was 38.6 % of control.

As to AGAAATAAGTGGTAGT (sugars l2 d12 l2, PS), the calcium oscillation score is 86.9 % of control.

For the sequence “TGCCCATTCAAAATCTT (sugars l3 d11 l3, PS)”, the calcium oscillation score was 74.3 % of control.

Turning to “CAAATCAATTCTCATTTCAA (sugars l4 d12 l4, PS)”, the calcium oscillation score is 65.7 % of control.

Turning to AATTATTTACACTGTCC (sugars l4 d9 l4, PS), the calcium oscillation score is 55.6 % of control.

“ACTTATCTATCCATCTATT (sugars l3 d12 l4, PS)”: the calcium oscillation score is 55.8 % of control.

As for CCTCCTTAACCATTAG (sugars l2 d11 l3, PS), the calcium oscillation score was 54.5 % of control.

Consider CGCAGGCGCGAGCAGC (sugars l3 d10 l3, PS), for which the calcium oscillation score was 20.7 % of control.

As for GCTTCCAGTCCCGTCT (sugars l3 d10 l3, PS), the calcium oscillation score is 104 % of control.

AGCGTGATCTTCCATC (sugars l3 d10 l3, PS): the calcium oscillation score was 101 % of control.

As for “CCCACATTATATCAGTA (sugars l2 d12 l3, PS)”, the calcium oscillation score was 80.7 % of control.

As for “CTTAGTCATCTTCCCTCA (sugars l2 d14 l2, PS)”, the calcium oscillation score was 93.8 % of control.

Regarding CTCCAATCTTACAGAT (sugars l4 d9 l3, PS), the calcium oscillation score was 102 % of control.

For “CCCAGACCATCAATTTC (sugars l2 d12 l3, PS)”, the calcium oscillation score was 82.2 % of control.

Take “TCTTATTGCTTTCCAAT (sugars l3 d10 l4, PS)”: the calcium oscillation score is 101 % of control.

As to “CTCCTGGTTTATGATGGATG (sugars l3 d14 l3, PS)”, the calcium oscillation score is 35 % of control.

“TTCTGAATTCCTATCAT (sugars l4 d10 l3, PS)”: the calcium oscillation score is 40.1 % of control.

For “GCACCAGGAACCTTCCAGAA (sugars l3 d14 l3, PS)”, the calcium oscillation score is 12.8 % of control.

Take “TGGAAAGATGAAATTTGCTC (sugars l3 d14 l3, PS)”: the calcium oscillation score is 5.81 % of control.

As for “ATGACCTCAACTCTACCT (sugars l3 d13 l2, PS)”, the calcium oscillation score is 61 % of control.

With “TTTGGAAAGATGAAATTTGC (sugars l3 d14 l3, PS)”, the calcium oscillation score is 7.77 % of control.

Consider TAAAGTCCCAGGTC (sugars l3 d8 l3, PS), for which the calcium oscillation score is 72.4 % of control.

Turning to AACTTCTAATTTAGTC (sugars l4 d8 l4, PS), the calcium oscillation score was 81.9 % of control.

TCCATTAGTCTCTTCA (sugars l3 d11 l2, PS): the calcium oscillation score is 65.1 % of control.

For “ATTTCCAAATTCACTTTTAC (sugars lldllddddddddddlldll, PS)”, the calcium oscillation score is 85.2 % of control.

Take “GCCAGGGACGTGGGTGATAT (sugars l3 d14 l3, PS)”: the calcium oscillation score is 0 % of control.

Take ACTATGAAATCCTTCT (sugars l4 d8 l4, PS): the calcium oscillation score is 92.1 % of control.

In the case of “ATCCTAAGTCAACCACA (sugars l2 d11 l4, PS)”, the calcium oscillation score is 69 % of control.

With TTGGCTTTGGCGTT (sugars l3 d8 l3, PS), the calcium oscillation score was 96.2 % of control.

For the sequence ATCTTAGGCTGGCCC (sugars l3 d9 l3, PS), the calcium oscillation score is 50.6 % of control.

With AATATTACACCATCCA (sugars l4 d8 l4, PS), the calcium oscillation score was 101 % of control.

With “CCCGGAACTCTCAACTCCTC (sugars l3 d14 l3, PS)”, the calcium oscillation score is 18.1 % of control.

Regarding “CTCTTCAAATCATTCAAT (sugars l4 d10 l4, PS)”, the calcium oscillation score was 69.7 % of control.

As to “CGCCTTTAGTGATTACAGGC (sugars l3 d14 l3, PS)”, the calcium oscillation score was 20.2 % of control.

Take “TCATTTTTCTCAAGCTCC (sugars l2 d14 l2, PS)”: the calcium oscillation score is 55.8 % of control.

Turning to “CTTTATTTCCAAATTCACT (sugars l4 d10 l1 d1 l3, PS)”, the calcium oscillation score was 106 % of control.

Consider “TTCCACATTTTACAGTA (sugars l3 d10 l4, PS)”, for which the calcium oscillation score was 76.6 % of control.

Turning to CTTTGAGTTGAGGGAC (sugars l3 d10 l3, PS), the calcium oscillation score is 29.1 % of control.

As for TCAACTGGTTTGTAGA (sugars l3 d10 l3, PS), the calcium oscillation score is 110 % of control.

Regarding AATTTAGTCACCATCA (sugars l4 d8 l4, PS), the calcium oscillation score was 62.1 % of control.

With “ATTTCCAAATTCACTTTTAC (sugars lllddldddddddddlldll, PS)”, the calcium oscillation score is 110 % of control.

Regarding “CAGGGAGGCAGACACCTCGT (sugars l3 d14 l3, PS)”, the calcium oscillation score is 50.9 % of control.

The values are drawn from the OligoGym collection.
